Experimental data taken from article PMC11822212, “High-throughput screening identifies Aurora kinase B as a critical therapeutic target for Merkel cell carcinoma” (Nature Communications, 2025).
Values joined by “and” are separate entries in the source; they are usually repeats but may differ in a detail not shown here. Identical values can stand only once. Like-named read-outs stand apart in the source and are kept apart here.

Legend:
Test in all cases: qHTS cell viability (CellTiter-Glo, 72 h; primary and follow-up small molecule screen)
Format in all cases: cell-based, human
MCC13 cells (VN-MCC) = system: MCC13 cells (VN-MCC)
MCC26 cells (VN-MCC) = system: MCC26 cells (VN-MCC)
UISO cells (VN-MCC) = system: UISO cells (VN-MCC)
WAGA cells (VP-MCC) = system: WAGA cells (VP-MCC)
MKL-1 cells (VP-MCC) = system: MKL-1 cells (VP-MCC)
MKL-2 cells (VP-MCC) = system: MKL-2 cells (VP-MCC)

Row | Compound | Area under the dose-response curve (AUC) (MCC13 cells (VN-MCC)) | Area under the dose-response curve (AUC) (MCC26 cells (VN-MCC)) | Area under the dose-response curve (AUC) (UISO cells (VN-MCC)) | Area under the dose-response curve (AUC) (WAGA cells (VP-MCC)) | Area under the dose-response curve (AUC) (MKL-1 cells (VP-MCC)) | Area under the dose-response curve (AUC) (MKL-2 cells (VP-MCC)) | Area under the dose-response curve (AUC) MCC13 Replicate 1 (MCC13 cells (VN-MCC)) | Area under the dose-response curve (AUC) MCC13 Replicate 2 (MCC13 cells (VN-MCC)) | Area under the dose-response curve (AUC) MCC13 Replicate 3 (MCC13 cells (VN-MCC)) | Area under the dose-response curve (AUC) MCC26 Replicate 1 (MCC26 cells (VN-MCC)) | Area under the dose-response curve (AUC) MCC26 Replicate 2 (MCC26 cells (VN-MCC)) | Area under the dose-response curve (AUC) MCC26 Replicate 3 (MCC26 cells (VN-MCC)) | Area under the dose-response curve (AUC) UISO Replicate 1 (UISO cells (VN-MCC)) | Area under the dose-response curve (AUC) UISO Replicate 2 (UISO cells (VN-MCC)) | Area under the dose-response curve (AUC) UISO Replicate 3 (UISO cells (VN-MCC)) | Area under the dose-response curve (AUC) WAGA Replicate 1 (WAGA cells (VP-MCC)) | Area under the dose-response curve (AUC) WAGA Replicate 2 (WAGA cells (VP-MCC)) | Area under the dose-response curve (AUC) WAGA Replicate 3 (WAGA cells (VP-MCC)) | Area under the dose-response curve (AUC) MKL-1 Replicate 1 (MKL-1 cells (VP-MCC)) | Area under the dose-response curve (AUC) MKL-1 Replicate 2 (MKL-1 cells (VP-MCC)) | also measured
1 | C[C@]12CC[C@H](O)C[C@H]1CC[C@@H]1[C@@H]2CC[C@]2(C)[C@@H](c3ccc(=O)oc3)CC[C@]12O [Bufalin] | 246.2 and 243.7 and 237.7 | 270.7 and 302.4 and 244.7 | 235.9 and 234.7 and 201.8 | 311.5 and 289.3 and 286.6 | 317.9 and 310.4 and 298.2 | 316.9 and 287.6 and 264.0 |  |  |  |  |  |  |  |  |  |  |  |  |  |  | 
2 | CCN(CC)C(=S)SSC(=S)N(CC)CC [Disulfiram] |  |  |  |  |  |  |  |  |  |  |  |  |  |  |  |  |  |  |  |  | Area under the dose-response curve (AUC) MCC13 Replicate 1 (MCC13 cells (VN-MCC); follow-up screen, MCC13, replicate 1): 436.7; Area under the dose-response curve (AUC) MCC13 Replicate 2 (MCC13 cells (VN-MCC); follow-up screen, MCC13, replicate 2): 415.1; Area under the dose-response curve (AUC) MCC13 Replicate 3 (MCC13 cells (VN-MCC); follow-up screen, MCC13, replicate 3): 342.5; Area under the dose-response curve (AUC) MCC26 Replicate 1 (MCC26 cells (VN-MCC); follow-up screen, MCC26, replicate 1): 398.0; Area under the dose-response curve (AUC) MCC26 Replicate 2 (MCC26 cells (VN-MCC); follow-up screen, MCC26, replicate 2): 401.3; Area under the dose-response curve (AUC) MCC26 Replicate 3 (MCC26 cells (VN-MCC); follow-up screen, MCC26, replicate 3): 322.7; Area under the dose-response curve (AUC) UISO Replicate 1 (UISO cells (VN-MCC); follow-up screen, UISO, replicate 1): 247.9; Area under the dose-response curve (AUC) UISO Replicate 2 (UISO cells (VN-MCC); follow-up screen, UISO, replicate 2): 258.4; Area under the dose-response curve (AUC) UISO Replicate 3 (UISO cells (VN-MCC); follow-up screen, UISO, replicate 3): 254.5; Area under the dose-response curve (AUC) WAGA Replicate 1 (WAGA cells (VP-MCC); follow-up screen, WAGA, replicate 1): 389.6; Area under the dose-response curve (AUC) WAGA Replicate 2 (WAGA cells (VP-MCC); follow-up screen, WAGA, replicate 2): 433.6; Area under the dose-response curve (AUC) WAGA Replicate 3 (WAGA cells (VP-MCC); follow-up screen, WAGA, replicate 3): 454.9; Area under the dose-response curve (AUC) MKL-1 Replicate 1 (MKL-1 cells (VP-MCC); follow-up screen, MKL-1, replicate 1): 287.1; Area under the dose-response curve (AUC) MKL-1 Replicate 2 (MKL-1 cells (VP-MCC); follow-up screen, MKL-1, replicate 2): 274.6; Area under the dose-response curve (AUC) MKL-1 Replicate 3 (MKL-1 cells (VP-MCC); follow-up screen, MKL-1, replicate 3): 256.7; Area under the dose-response curve (AUC) MKL-2 Replicate 1 (MKL-2 cells (VP-MCC); follow-up screen, MKL-2, replicate 1): 243.8; Area under the dose-response curve (AUC) MKL-2 Replicate 2 (MKL-2 cells (VP-MCC); follow-up screen, MKL-2, replicate 2): 235.0; Area under the dose-response curve (AUC) MKL-2 Replicate 3 (MKL-2 cells (VP-MCC); follow-up screen, MKL-2, replicate 3): 298.1
3 | C[C@H]1CCC/C=C/[C@@H]2C[C@H](OC(=O)CN(C)C)C[C@H]2[C@H](O)/C=C/C(=O)O1 [Breflate] |  |  |  |  |  |  | 301.4 | 313.0 | 291.5 | 324.6 | 334.5 | 272.7 | 287.6 | 297.1 | 295.8 | 298.7 | 274.6 | 278.0 | 284.7 | 297.0 | Area under the dose-response curve (AUC) MKL-1 Replicate 3 (MKL-1 cells (VP-MCC)): 286.8; Area under the dose-response curve (AUC) MKL-2 Replicate 1 (MKL-2 cells (VP-MCC)): 314.0; Area under the dose-response curve (AUC) MKL-2 Replicate 2 (MKL-2 cells (VP-MCC)): 292.1; Area under the dose-response curve (AUC) MKL-2 Replicate 3 (MKL-2 cells (VP-MCC)): 266.7
4 | O[C@H]1[C@H]2[C@H](O)CCCN2C[C@H]1O [Swainsonine] |  |  |  |  |  |  | 474.5 | 467.6 | 453.7 | 425.6 | 420.4 | 449.5 | 446.0 | 458.3 | 417.9 | 517.4 | 504.3 | 463.6 | 483.5 | 459.4 | Area under the dose-response curve (AUC) MKL-1 Replicate 3 (MKL-1 cells (VP-MCC)): 455.2; Area under the dose-response curve (AUC) MKL-2 Replicate 1 (MKL-2 cells (VP-MCC)): 462.0; Area under the dose-response curve (AUC) MKL-2 Replicate 2 (MKL-2 cells (VP-MCC)): 456.2; Area under the dose-response curve (AUC) MKL-2 Replicate 3 (MKL-2 cells (VP-MCC)): 445.8
5 | Cc1nc2ccc(-n3ncc(C(=O)c4cc5ccccc5[nH]4)c3N)cc2[nH]1 [CH5183284 (Debio-1347)] | 509.3 and 491.7 and 491.1 | 405.6 and 395.0 and 403.7 | 433.7 and 424.4 and 430.0 | 493.1 and 498.3 and 457.6 | 508.7 and 488.2 and 500.7 | 485.9 and 459.2 and 468.2 |  |  |  |  |  |  |  |  |  |  |  |  |  |  | 
